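Interpolation was linear, between the two tested concentrations surrounding the appropriate level; five concentrations were tested over 48 hours in 96-well plates. Here, GI50 denotes the concentration required for 50% inhibition of growth. TGI: total growth inhibition.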
Tests used:
Assay in all cases: NCI anticancer screen, dose series, 48 h
[1] = test system: 786-0 renal
[2] = test system: A498 renal
[3] = test system: A549 NSCLC
[4] = test system: ACHN renal
[5] = test system: BT-549 breast
[6] = test system: CAKI-1 renal
[7] = test system: CCRF-CEM leukemia
[8] = test system: COLO 205 colon
[9] = test system: DU-145 prostate
[10] = test system: EKVX NSCLC
[11] = test system: HCC-2998 colon
[12] = test system: HCT-116 colon
[13] = test system: HCT-15 colon
[14] = test system: HOP-62 NSCLC
[15] = test system: HT29 colon
[16] = test system: IGROV1 ovarian
[17] = test system: K-562 leukemia
[18] = test system: KM12 colon
[19] = test system: LOX IMVI melanoma
[20] = test system: M14 melanoma
[21] = test system: MALME-3M melanoma
[22] = test system: MCF7 breast
[23] = test system: MDA-MB-231 breast
[24] = test system: MDA-MB-435
[25] = test system: MDA-N
[26] = test system: MOLT-4 leukemia
[27] = test system: NCI-H226 lung
[28] = test system: NCI-H23 lung
[29] = test system: NCI-H460 lung
[30] = test system: NCI-H522 lung
[31] = test system: NCI/ADR-RES ovarian
[32] = test system: OVCAR-3 ovarian
[33] = test system: OVCAR-4 ovarian
[34] = test system: OVCAR-5 ovarian
[35] = test system: OVCAR-8 ovarian
[36] = test system: PC-3 prostate
[37] = test system: RPMI-8226 leukemia
[38] = test system: RXF 393 renal
[39] = test system: SF-268 CNS
[40] = test system: SF-295 CNS
[41] = test system: SF-539 CNS
[42] = test system: SK-MEL-2 melanoma
[43] = test system: SK-MEL-28 melanoma
[44] = test system: SK-MEL-5 melanoma
[45] = test system: SK-OV-3 ovarian
[46] = test system: SN12C renal
[47] = test system: SNB-19 CNS
[48] = test system: SNB-75 CNS
[49] = test system: SR leukemia
[50] = test system: SW-620 colon
[51] = test system: TK-10 renal
[52] = test system: U251 CNS
[53] = test system: UACC-257 melanoma
[54] = test system: UACC-62 melanoma
[55] = test system: UO-31 renal
[56] = test system: T-47D breast
[57] = test system: HL-60(TB) leukemia
[58] = test system: HOP-92 NSCLC
[59] = test system: HS 578T breast

CSC(=S)OC1C(CO[Si](C)(C)C(C)(C)C)OC2OC(C)(C)OC21 (centres undefined)
TGI [1]: 42 µM | TGI [2]: 43.4 µM | TGI [3]: 78.6 µM | TGI [4]: 31.3 µM | TGI [5]: 67 µM | TGI [6]: > 100 µM | TGI [7]: 34 µM | TGI [8]: 36.1 µM | TGI [9]: > 100 µM | TGI [10]: 60.1 µM | TGI [11]: 49 µM | TGI [12]: 36.6 µM | TGI [13]: 35.3 µM | TGI [14]: 34.4 µM | TGI [15]: 24.7 µM | TGI [16]: 53.6 µM | TGI [17]: 31 µM | TGI [18]: 30.4 µM | TGI [19]: 32 µM | TGI [20]: > 100 µM | TGI [21]: 32.4 µM | TGI [22]: 29.8 µM | TGI [23]: 33.9 µM | TGI [24]: > 100 µM | TGI [25]: > 100 µM | TGI [26]: 30.5 µM | TGI [27]: 29.7 µM | TGI [28]: 44.3 µM | TGI [29]: 32.8 µM | TGI [30]: 31.3 µM | TGI [31]: 36.2 µM | TGI [32]: 31.3 µM | TGI [33]: > 100 µM | TGI [34]: 37.6 µM | TGI [35]: 95.8 µM | TGI [36]: 38.4 µM | TGI [37]: 36.5 µM | TGI [38]: 37.5 µM | TGI [39]: 45.9 µM | TGI [40]: 32.2 µM | TGI [41]: 43.5 µM | TGI [42]: 28.5 µM | TGI [43]: > 100 µM | TGI [44]: 30.4 µM | TGI [45]: 41.5 µM | TGI [46]: 37.1 µM | TGI [47]: 47 µM | TGI [48]: > 100 µM | TGI [49]: 30.4 µM | TGI [50]: 31.9 µM | TGI [51]: 49 µM | TGI [52]: 31.8 µM | TGI [53]: 34.8 µM | TGI [54]: 36.1 µM | TGI [55]: 32 µM

CCCCCCCCNC(=S)/N=C/c1c(O)c2ccccc2oc1=O
TGI [2]: 32.2 µM | TGI [3]: 35.2 µM | TGI [4]: 29.5 µM | TGI [7]: 30.9 µM | TGI [8]: 32.3 µM | TGI [9]: 33.6 µM | TGI [10]: 66.9 µM | TGI [11]: 26.7 µM | TGI [12]: 31 µM | TGI [13]: 28.4 µM | TGI [14]: 32.2 µM | TGI [17]: 40.1 µM | TGI [18]: 29.1 µM | TGI [19]: 26 µM | TGI [20]: 34.6 µM | TGI [23]: 32.4 µM | TGI [25]: 34.3 µM | TGI [26]: 33.7 µM | TGI [27]: 51.7 µM | TGI [28]: 39.7 µM | TGI [29]: 30.3 µM | TGI [30]: 22.4 µM | TGI [31]: 47.4 µM | TGI [32]: 29.1 µM | TGI [33]: 29.4 µM | TGI [34]: 28.1 µM | TGI [35]: 52.4 µM | TGI [36]: 28.5 µM | TGI [38]: 34.8 µM | TGI [40]: 34 µM | TGI [41]: 36.6 µM | TGI [42]: 48 µM | TGI [43]: 31.1 µM | TGI [44]: 30.4 µM | TGI [46]: 38.7 µM | TGI [48]: 34.2 µM | TGI [56]: > 100 µM | TGI [53]: 40.9 µM | TGI [54]: 28.6 µM

CS(=O)(=O)Nc1cc(-c2ccc3ncnc(Nc4ccc5c(cnn5Cc5ccccc5F)c4)c3c2)cnc1Cl
GI50 [1]: 1.84 µM | TGI [1]: > 100 µM | GI50 [2]: 1.05 µM | TGI [2]: 3.71 µM | GI50 [3]: 2.87 µM | TGI [3]: > 53.7 µM | GI50 [4]: 3.24 µM | TGI [4]: > 52.9 µM | GI50 [5]: 1.57 µM | TGI [5]: 8.73 µM | GI50 [6]: 1.71 µM | TGI [6]: 5.62 µM | GI50 [7]: 0.634 µM | TGI [7]: > 31.2 µM | GI50 [8]: 2.39 µM | TGI [8]: 9.09 µM | GI50 [9]: 2 µM | TGI [9]: > 38.2 µM | GI50 [10]: 1.69 µM | TGI [10]: 9.53 µM | GI50 [11]: 2.2 µM | TGI [11]: 8.46 µM | GI50 [12]: 2.08 µM | TGI [12]: > 33.7 µM | GI50 [13]: 3.28 µM | TGI [13]: 55 µM | GI50 [57]: 1.02 µM | TGI [57]: 6.02 µM | GI50 [14]: 0.457 µM | TGI [14]: > 100 µM | GI50 [58]: 0.131 µM | GI50 [59]: 0.249 µM | TGI [59]: 1.84 µM | GI50 [15]: 1.6 µM | TGI [15]: > 47.3 µM | GI50 [16]: 0.575 µM | TGI [16]: 4.31 µM | GI50 [17]: 2.27 µM | TGI [17]: > 100 µM | GI50 [18]: 2.48 µM | TGI [18]: 8.1 µM | GI50 [19]: 1.69 µM | TGI [19]: 4.71 µM | GI50 [20]: 2.66 µM | TGI [20]: 15.6 µM | GI50 [21]: 0.466 µM | TGI [21]: 3 µM | GI50 [22]: 1.48 µM | TGI [22]: 30.3 µM | GI50 [23]: 1.51 µM | TGI [23]: > 100 µM | GI50 [24]: 2.35 µM | TGI [24]: 8.32 µM | GI50 [26]: 1.54 µM | TGI [26]: 7.48 µM | GI50 [27]: 1.74 µM | TGI [27]: 11.3 µM | GI50 [28]: 2.81 µM | TGI [28]: > 100 µM | GI50 [29]: 2.1 µM | TGI [29]: 58 µM | GI50 [30]: 1.18 µM | TGI [30]: 8.03 µM | GI50 [31]: 8.32 µM | TGI [31]: > 100 µM | GI50 [32]: 0.795 µM | TGI [32]: 3.13 µM | GI50 [33]: 3 µM | TGI [33]: > 100 µM | GI50 [34]: 2.22 µM | TGI [34]: > 100 µM | GI50 [35]: 2.72 µM | TGI [35]: > 100 µM | GI50 [36]: 1.31 µM | TGI [36]: > 23.6 µM | GI50 [37]: 1.64 µM | TGI [37]: 4.18 µM | GI50 [38]: 1.41 µM | TGI [38]: 5.85 µM | GI50 [39]: 1.31 µM | TGI [39]: 9.18 µM | GI50 [40]: 1.96 µM | TGI [40]: 8.51 µM | GI50 [41]: 1.09 µM | TGI [41]: 4.9 µM | GI50 [42]: 1.52 µM | TGI [42]: 4.65 µM | GI50 [43]: 0.771 µM | TGI [43]: 6.59 µM | GI50 [44]: 1.76 µM | TGI [44]: 3.28 µM | GI50 [45]: 0.845 µM | TGI [45]: 3.96 µM | GI50 [46]: 1.13 µM | TGI [46]: > 100 µM | GI50 [47]: 1.77 µM | TGI [47]: > 55.5 µM | GI50 [48]: 0.157 µM | TGI [48]: 2.4 µM | GI50 [49]: 3.86 µM | TGI [49]: > 100 µM | GI50 [50]: 1.94 µM | TGI [50]: > 35.9 µM | GI50 [56]: 0.367 µM | TGI [56]: 3.14 µM | GI50 [51]: 1.28 µM | TGI [51]: 5.44 µM | GI50 [52]: 2.11 µM | TGI [52]: 14.4 µM | GI50 [53]: 1.51 µM | TGI [53]: 9 µM | GI50 [54]: 1.47 µM | TGI [54]: 5.37 µM | GI50 [55]: 3.23 µM | TGI [55]: > 100 µM

Reference: PubChem BioAssay (NCI)
